ChEMBL document CHEMBL1201862, “PubChem BioAssay data set” (2004)
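Following 48 hours of exposure in 96-well plates, responses at five concentrations were used to interpolate endpoints linearly. GI50 is the concentration that inhibits growth by half.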 The source made the active and inactive calls. Rule as the data show it: active = GI50 up to about 1.1 µM and inactive = higher.

Experiments:
Test in all cases: NCI-60 cell line screen, 48 h
SW-620 = tested on: SW-620
SF-539 = tested on: SF-539
COLO 205 = tested on: COLO 205
M14 = tested on: M14
UACC-62 = tested on: UACC-62
NCI-H226 = tested on: NCI-H226
Malme-3M = tested on: Malme-3M
MOLT-4 = tested on: MOLT-4
ACHN = tested on: ACHN
786-0 = tested on: 786-0
TK-10 = tested on: TK-10
A549 = tested on: A549
HT-29 = tested on: HT-29
HL-60 = tested on: HL-60
SK-MEL-5 = tested on: SK-MEL-5
SNB-75 = tested on: SNB-75

Measured: GI50

S=C1OC2C3C4CC5C3C(O1)C1C5C4C21 (centres undefined)
inactive: SW-620 > 100 µM | SF-539 > 100 µM | COLO 205 > 100 µM | M14 > 100 µM | UACC-62 > 100 µM | NCI-H226 > 100 µM | Malme-3M > 100 µM | MOLT-4 > 100 µM | ACHN > 100 µM | 786-0 > 100 µM | TK-10 > 100 µM | A549 > 100 µM | HT-29 > 100 µM | HL-60 > 100 µM | SK-MEL-5 > 100 µM | SNB-75 > 100 µM

C=C=C(C(=O)OC)[S+]([O-])c1ccc([N+](=O)[O-])cc1[N+](=O)[O-] (centres undefined)
inactive: SW-620 14.5 µM | SF-539 26.1 µM | COLO 205 23.5 µM | M14 30.7 µM | UACC-62 28.2 µM | NCI-H226 54.6 µM | Malme-3M > 56.1 µM | MOLT-4 20.7 µM | ACHN 37.2 µM | 786-0 39.7 µM | TK-10 46 µM | A549 52.7 µM | HT-29 26.1 µM | HL-60 20.7 µM | SK-MEL-5 36.2 µM | SNB-75 29 µM

COCOCCCCCO[Si](C)(C)C(C)(C)C
inactive: SW-620 17.3 µM | SF-539 19.1 µM | COLO 205 19 µM | M14 19 µM | UACC-62 25.3 µM | Malme-3M 18.2 µM | MOLT-4 16.1 µM | ACHN 14.4 µM | 786-0 14.4 µM | TK-10 33 µM | A549 19.5 µM | HT-29 14.4 µM | HL-60 7.1 µM | SK-MEL-5 16.5 µM | SNB-75 30.3 µM

O=C(O)CSc1nnc(-c2ccco2)[nH]1
inactive: SW-620 > 100 µM | SF-539 > 100 µM | COLO 205 > 100 µM | M14 > 100 µM | UACC-62 > 100 µM | NCI-H226 > 100 µM | Malme-3M > 100 µM | MOLT-4 > 100 µM | ACHN > 100 µM | 786-0 > 100 µM | TK-10 > 100 µM | A549 > 100 µM | HT-29 > 100 µM | HL-60 > 100 µM | SK-MEL-5 > 100 µM | SNB-75 95.5 µM

O=C(Nc1ccc(Br)cc1)C(=O)C(C(=O)c1ccccc1F)C1OC(=O)c2ccccc21 (centres undefined)
inactive: SW-620 31.9 µM | SF-539 20.1 µM | COLO 205 20.4 µM | M14 16.5 µM | UACC-62 14 µM | NCI-H226 3.48 µM | Malme-3M 15.3 µM | MOLT-4 25.3 µM | ACHN 38.5 µM | 786-0 22.5 µM | TK-10 50.5 µM | A549 39.7 µM | HT-29 39.6 µM | HL-60 23.7 µM | SK-MEL-5 27.2 µM | SNB-75 19.7 µM

CCn1c(CSc2nc(-c3ccccc3)c(-c3ccccc3)[nH]2)n[nH]c1=S
inactive: SF-539 > 100 µM | COLO 205 > 100 µM | M14 > 100 µM | NCI-H226 > 100 µM | Malme-3M > 100 µM | MOLT-4 > 100 µM | ACHN > 100 µM | 786-0 > 100 µM | TK-10 > 100 µM | A549 > 100 µM | HT-29 > 100 µM | HL-60 > 100 µM | SK-MEL-5 > 100 µM | SNB-75 > 100 µM

O=C(c1ccc(Cl)cc1)c1ccc(OCCCOc2ccc(C(=O)c3ccc(Cl)cc3)cc2)cc1
inactive: SW-620 > 100 µM | SF-539 > 100 µM | COLO 205 > 100 µM | M14 > 100 µM | UACC-62 > 100 µM | NCI-H226 > 100 µM | Malme-3M > 100 µM | MOLT-4 > 100 µM | ACHN > 100 µM | 786-0 > 100 µM | TK-10 > 100 µM | A549 > 100 µM | HT-29 > 100 µM | HL-60 > 100 µM | SK-MEL-5 > 100 µM | SNB-75 33.6 µM

CC12N=NN(c3ccc([N+](=O)[O-])cc3)C1(O)c1ccccc1C2=O (centres undefined)
inactive: SW-620 > 100 µM | SF-539 70.1 µM | COLO 205 > 100 µM | M14 > 100 µM | UACC-62 > 100 µM | NCI-H226 > 100 µM | Malme-3M > 100 µM | ACHN 48.5 µM | 786-0 > 100 µM | TK-10 > 100 µM | A549 > 100 µM | HT-29 > 100 µM | HL-60 > 100 µM | SK-MEL-5 > 100 µM

COc1ccc(N(C)Sc2ccccc2)cc1
inactive: SW-620 43.7 µM | SF-539 20.4 µM | COLO 205 > 100 µM | M14 52.5 µM | UACC-62 34.7 µM | Malme-3M > 100 µM | MOLT-4 13.1 µM | 786-0 16.9 µM | TK-10 > 100 µM | A549 39.4 µM | HL-60 15.1 µM | SK-MEL-5 47.4 µM

CC1CC(C)C(=O)C(C(=O)CC2CC(=O)NC2=O)C1 (centres undefined)
inactive: SW-620 > 100 µM | SF-539 > 100 µM | COLO 205 > 100 µM | M14 > 100 µM | UACC-62 > 100 µM | NCI-H226 > 100 µM | Malme-3M > 100 µM | ACHN > 100 µM | 786-0 > 100 µM | TK-10 > 100 µM | A549 > 100 µM | HT-29 > 100 µM | HL-60 > 100 µM | SNB-75 > 100 µM

CCn1cnc2c(=S)nc(N)[nH]c21
inactive: SW-620 > 100 µM | SF-539 > 100 µM | COLO 205 > 100 µM | M14 > 100 µM | UACC-62 > 100 µM | NCI-H226 > 100 µM | Malme-3M > 100 µM | MOLT-4 > 100 µM | ACHN > 100 µM | 786-0 > 100 µM | TK-10 > 100 µM | A549 > 100 µM | HT-29 > 100 µM | HL-60 > 100 µM | SNB-75 > 100 µM

CC1(c2ccccc2)CC12C(=O)NC(=O)NC2=O (centres undefined)
inactive: SW-620 > 100 µM | SF-539 > 100 µM | COLO 205 > 100 µM | M14 > 100 µM | UACC-62 > 100 µM | NCI-H226 > 100 µM | Malme-3M > 100 µM | MOLT-4 > 100 µM | ACHN > 100 µM | 786-0 > 100 µM | TK-10 > 100 µM | A549 > 100 µM | HT-29 > 100 µM | HL-60 > 100 µM | SK-MEL-5 > 100 µM

C#Cc1cccc(N2C(=O)CC(=P(c3ccccc3)(c3ccccc3)c3ccccc3)C2=O)c1
inactive: SW-620 54.6 µM | COLO 205 44.9 µM | M14 47.6 µM | UACC-62 29.3 µM | NCI-H226 58.2 µM | Malme-3M 80 µM | MOLT-4 51.8 µM | ACHN > 100 µM | 786-0 24.5 µM | TK-10 > 100 µM | A549 70 µM | HT-29 39.6 µM | HL-60 15.1 µM | SK-MEL-5 25.6 µM | SNB-75 91.8 µM
